The text below walks through data of patent US8975417B2, “Pyrazolopyrrolidine derivatives and their use in the treatment of disease” (Novartis AG, priority 2013, dated 2015).

The subject of experiment [1] is MV-4-11 cells. Description: Cell growth inhibition assay (CellTiter-Glo), MV-4-11. As to conditions: Homo sapiens, MV4-11, read-out: MV-4-11 TGI. It is filed as cell-based. Put shortly:
(§1)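 CellTiter-Glo ATP luminescence after compound exposure at 37° C., 5% CO2; 3-fold serial dilutions from 10 μM, 0.1% DMSO vehicle. Readings background- and day 0-corrected, vehicle = 100%, medium = −100%. IC50 and total growth inhibition (TGI) from four-parameter fits.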
(ATP-based viability assays read luminescence as a measure of living cells.)

For experiment [2], the target named is His-Brd4(44-477) (Homo sapiens (Human), UniProt O60885). Description: TR-FRET in-vitro binding assay for BRD4. As to conditions: biochemical. Put shortly: (§2)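 Eight-point dilution series tested against in-house His-BRD2(60-472), BRD3(20-477) or BRD4(44-477) (45 nM in dispensed solution) binding acetyl-histone H4 (AcK5,8,12,16; 60 nM in dispensed solution). Incubation 35 min at 30 °C, pH 7.5 HEPES buffer; detection by TR-FRET using Eu-anti-His6 and streptavidin-allophycocyanin.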
(In general: In TR-FRET formats the signal depends on donor and acceptor labels being close together.)

Experiment [3] concerns THP-1 cells. Description: Cell growth inhibition assay (CellTiter-Glo), THP-1. The class given is cell-based. As to conditions: Homo sapiens, read-out: THP-1 TGI. The procedure, abridged:
as §1

For experiment [4], the system named is K-562 cells. Description: Cell growth inhibition assay (CellTiter-Glo), K-562. It is filed as cell-based, human. As to conditions: Homo sapiens, K562, read-out: K-562 TGI. Put shortly:
as §1

In experiment [5] the target is nuclear BRD4-NUT foci in HCC2494 NUT midline carcinoma cells (Homo sapiens (Human), UniProt O60885+Q86Y26). Description: Nut-foci formation assay. The class given is cell-based. As to conditions: 24 hours, read-out: HCS Brd4-NUT IC50. The procedure:
HCC2494 NUT midline carcinoma cells (expressing BRD4-NUT-fusion) were obtained from the University of Texas Southwestern and cultured in RPMI-1640 medium containing 10% Foetal Calf Serum at 37° C. in a humidified 5% CO2 incubator.
Compound-mediated inhibition of BRD4 activity was monitored by quantification of the number and intensity of nuclear BRD4-NUT foci using automated immunofluorescence microscopy. Briefly, 5000 cells in 20 μL fresh medium were seeded into Poly-D-Lysine-precoated 384-well plates and incubated overnight at 37° C. and 5% CO2, followed by addition of 5 μl medium containing compound dilutions at 5-fold their final intended concentration. Dose-response effects were assessed by 3-fold serial dilutions of the test compound, starting at 10 μM. Following incubation of the cells for 24 hours at 37° C. and 5% CO2, the cells were fixed by incubation with 3.7% formaldehyde for 10 min, followed by immunofluorescence staining using rabbit anti-NUT (Cell Signaling Technologies, Cat#3625) as primary, and AlexaFluor488-labeled goat anti-rabbit (Invitrogen, Cat#A11008) as secondary antibody (latter complemented with 1 μg/mL Hoechst33342 as DNA dye). Assay plates were imaged using the appropriate filter sets on the Cellomics VTi automated fluorescence microscopy platform (ThermoFisher Scientific) and the population average of the number of NUT-foci per nucleus is quantified using the Cellomics Spot Detection BioApplication image analysis algorithm (ThermoFisher Scientific). The effect of a particular test compound concentration on NUT-foci number and intensity is expressed as percentage of the value obtained for cells treated with vehicle only (DMSO, 0.1% final concentration), which was set as 100. Compound concentrations leading to half-maximal (IC50) inhibition of the aforementioned readout parameters were determined using standard four parameter curve fitting.

In experiment [6] the target is His-Brd2(60-472) (Homo sapiens (Human), UniProt P25440). Description: TR-FRET in-vitro binding assay for BRD2. As to conditions: biochemical. The procedure, abridged:
as §2

The target in experiment [7] is His-Brd3(20-477) (Homo sapiens (Human), UniProt Q15059). Description: TR-FRET in-vitro binding assay for BRD3. As to conditions: biochemical. Put shortly:
as §2

For experiment [8], the target named is His-CREBBP (1081-1197) bromodomain (Homo sapiens (Human), UniProt Q92793). Description: AlphaScreen in-vitro binding assay for CREBBP. As to conditions: biochemical. The procedure, abridged: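 Ni-chelate acceptor and streptavidin donor beads (45 µg/mL each, in 50 mM HEPES pH 7.5, 150 mM NaCl, 0.02% BSA) were then added for 60 min at room temperature. IC50 came from 8-point non-linear regression.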
(In Alpha technology, singlet oxygen from a donor bead excites a nearby acceptor bead.)

Where only a bound is given, the exact number is not on record here.

One may read the IC50 as the concentration that gives 50% inhibition.

Chain of His-Brd2(60-472) (P25440 60-472): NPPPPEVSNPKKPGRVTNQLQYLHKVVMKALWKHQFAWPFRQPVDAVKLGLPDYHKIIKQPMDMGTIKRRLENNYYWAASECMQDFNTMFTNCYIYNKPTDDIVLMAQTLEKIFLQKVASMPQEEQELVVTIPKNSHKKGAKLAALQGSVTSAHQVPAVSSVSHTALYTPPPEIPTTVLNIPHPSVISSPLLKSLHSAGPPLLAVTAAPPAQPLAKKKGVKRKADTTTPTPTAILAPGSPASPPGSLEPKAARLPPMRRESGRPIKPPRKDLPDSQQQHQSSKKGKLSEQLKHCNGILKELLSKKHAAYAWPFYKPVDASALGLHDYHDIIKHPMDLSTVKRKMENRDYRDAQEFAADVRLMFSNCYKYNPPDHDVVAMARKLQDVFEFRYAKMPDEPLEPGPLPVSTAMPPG
Chain of His-CREBBP (1081-1197) bromodomain (Q92793 1081-1197): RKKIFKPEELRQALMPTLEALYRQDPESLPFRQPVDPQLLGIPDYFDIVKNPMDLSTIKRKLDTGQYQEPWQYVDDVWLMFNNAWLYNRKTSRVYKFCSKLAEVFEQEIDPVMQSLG
Chain of His-Brd3(20-477) (Q15059 20-477): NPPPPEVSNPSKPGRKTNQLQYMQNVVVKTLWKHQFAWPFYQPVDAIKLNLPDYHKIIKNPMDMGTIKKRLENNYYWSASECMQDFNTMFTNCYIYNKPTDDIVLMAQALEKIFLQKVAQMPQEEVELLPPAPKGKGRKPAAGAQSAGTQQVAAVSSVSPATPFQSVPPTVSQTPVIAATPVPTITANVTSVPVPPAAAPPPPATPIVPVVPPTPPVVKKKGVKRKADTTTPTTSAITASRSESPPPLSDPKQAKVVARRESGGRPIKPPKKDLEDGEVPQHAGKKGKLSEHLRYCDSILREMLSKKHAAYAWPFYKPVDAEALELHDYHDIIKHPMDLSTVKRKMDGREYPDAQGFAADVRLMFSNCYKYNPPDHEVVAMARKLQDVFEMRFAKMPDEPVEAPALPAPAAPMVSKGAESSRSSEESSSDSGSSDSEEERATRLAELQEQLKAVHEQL

On to `CNc1cc(N2C(=O)c3c(c(C)nn3C3CC3)[C@H]2c2ccc(Cl)cc2)nn2c(C)nnc12` [Example 161, (R)-4-(4-chlorophenyl)-1-cyclopropyl-3-methyl-5-(3-methyl-8-(methylamino)-[1,2,4]triazolo[4,3-b]pyridazin-6-yl)-4,5-dihydropyrrolo[3,4-c]pyrazol-6(1H)-one], for which the values for the IC (total growth inhibition) in experiment [1], in experiment [3] and in experiment [4] were 0.102 µM, 0.152 µM and > 10 µM, respectively. Further, the half-inhibitory concentration (IC50) is 21 nM in experiment [2], 40.1 nM in experiment [5], 33 nM in experiment [6] and 24 nM in experiment [7].

As to `Cc1cc(N2C(=O)c3n[nH]cc3C2c2ccc(Cl)cc2)cn(C)c1=O` (centres unmarked) [Example 26, 4-(4-chlorophenyl)-5-(1,5-dimethyl-6-oxo-1,6-dihydropyridin-3-yl)-4,5-dihydropyrrolo[3,4-c]pyrazol-6(2H)-one], the IC (total growth inhibition) is 0.317 µM in experiment [1], 0.772 µM in experiment [3] and > 10 µM in experiment [4]. The IC50 in experiment [2] came to 150 nM; in experiment [5] it was 698 nM; in experiment [6] it was 210 nM.

Take `Cc1nn(C2CC2)c2c1C(c1cccc(OC(F)(F)F)c1)N(c1cc(C)c(=O)n(C)c1)C2=O` (centres unmarked) [Example 91, 1-cyclopropyl-5-(1,5-dimethyl-6-oxo-1,6-dihydropyridin-3-yl)-3-methyl-4-(3-(trifluoromethoxy)phenyl)-4,5-dihydropyrrolo[3,4-c]pyrazol-6(1H)-one]: the results for the IC (total growth inhibition) in experiment [1], in experiment [3] and in experiment [4] were 0.978 µM, 1.44 µM and > 10 µM, respectively. Further, the IC50 in experiment [5] stood at 736 nM.

Take `Cc1nn(C2CNC2)c2c1C(c1ccc(Cl)cc1)N(c1cc(C)c(=O)n(C)c1)C2=O` (centres unmarked) [Example 138, 1-(azetidin-3-yl)-4-(4-chlorophenyl)-5-(1,5-dimethyl-6-oxo-1,6-dihydropyridin-3-yl)-3-methyl-4,5-dihydropyrrolo[3,4-c]pyrazol-6(1H)-one]: the IC (total growth inhibition) in experiment [1] was 0.353 µM; in experiment [3], 1.51 µM; in experiment [4], > 10 µM. In addition, the half-maximal inhibitory concentration (IC50) in experiment [2] is 290 nM; in experiment [5] it was 845 nM; in experiment [7] it was 240 nM.

Regarding `Cc1cc(N2C(=O)c3c(c(CO)nn3C3CC3)C2c2ccc(Cl)cc2)cn(C)c1=O` (centres unmarked) [Example 133, 4-(4-chlorophenyl)-1-cyclopropyl-5-(1,5-dimethyl-6-oxo-1,6-dihydropyridin-3-yl)-3-(hydroxymethyl)-4,5-dihydropyrrolo[3,4-c]pyrazol-6(1H)-one], the IC (total growth inhibition) in experiment [1] is 0.102 µM; in experiment [3], 0.327 µM; in experiment [4], > 10 µM. Also, the IC50 in experiment [2] is 79 nM; in experiment [5], 64.7 nM; in experiment [7] it was 80 nM.

As to `Cc1nn(C2CC2)c2c1[C@H](c1ccc(Cl)cc1)N(c1cc(C)c3nnc(C)n3n1)C2=O` [Example 123, (S)-4-(4-chlorophenyl)-1-cyclopropyl-5-(3,8-dimethyl-[1,2,4]triazolo[4,3-b]pyridazin-6-yl)-3-methyl-4,5-dihydropyrrolo[3,4-c]pyrazol-6(1H)-one], the values for the IC (total growth inhibition) in experiment [1], in experiment [3] and in experiment [4] were 5.81 µM, > 10 µM and > 10 µM, respectively. In addition, the IC50 in experiment [2] worked out at 14000 nM; in experiment [5], 8910 nM.

For `CCc1nn(CCOC)c2c1C(c1ccc(Cl)cc1)N(c1cc(C)c(=O)n(C)c1)C2=O` (centres unmarked) [Example 86, 4-(4-chlorophenyl)-5-(1,5-dimethyl-6-oxo-1,6-dihydropyridin-3-yl)-3-ethyl-1-(2-methoxyethyl)-4,5-dihydropyrrolo[3,4-c]pyrazol-6(1H)-one], the IC (total growth inhibition) is 0.0548 µM in experiment [1], 0.123 µM in experiment [3] and > 10 µM in experiment [4]. The IC50 in experiment [5] was 38.4 nM.

With `CCn1nc(C)c2c1C(=O)N(c1cc(C)c3nnc(C)n3c1)C2c1ccc(Cl)cc1F` (centres unmarked) [Example 185, 4-(4-chloro-2-fluorophenyl)-5-(3,8-dimethyl-[1,2,4]triazolo[4,3-a]pyridin-6-yl)-1-ethyl-3-methyl-4,5-dihydropyrrolo[3,4-c]pyrazol-6(1H)-one], the IC50 in experiment [8] is 14200 nM; in experiment [2], < 37 nM; in experiment [6], 71 nM; in experiment [7], 36 nM. For the same compound, the values for the IC (total growth inhibition) in experiment [1], in experiment [3] and in experiment [4] were 0.0427 µM, 0.0877 µM and > 10 µM, respectively.

`Cc1cc(N2C(=O)c3c(c(C(F)(F)F)nn3C3CC3)C2c2ccc(Cl)cc2)cn(C)c1=O` (centres unmarked) [Example 45, 4-(4-chlorophenyl)-1-cyclopropyl-5-(1,5-dimethyl-6-oxo-1,6-dihydropyridin-3-yl)-3-(trifluoromethyl)-4,5-dihydropyrrolo[3,4-c]pyrazol-6(1H)-one]: the IC50 was 4800 nM in experiment [8], 85 nM in experiment [2], 60 nM in experiment [6] and 100 nM in experiment [7]. Further, the IC (total growth inhibition) is 0.373 µM in experiment [1], 0.698 µM in experiment [3] and > 10 µM in experiment [4].

For the compound `Cc1cc(N2C(=O)c3c(cnn3C(C)C)C2c2ccc(Cl)cc2)cn(C)c1=O` (centres unmarked) [Example 36, 4-(4-chlorophenyl)-5-(1,5-dimethyl-6-oxo-1,6-dihydropyridin-3-yl)-1-isopropyl-4,5-dihydropyrrolo[3,4-c]pyrazol-6(1H)-one], the IC50 amounted to 3600 nM in experiment [8], 66 nM in experiment [2], 57 nM in experiment [6] and 59 nM in experiment [7]. Besides, the IC (total growth inhibition) in experiment [1] is 0.0927 µM; in experiment [3] it was 0.191 µM; in experiment [4], > 10 µM.

In the case of `Cc1cc(N2C(=O)c3nn(C(C)C)c(C)c3C2c2ccc(Cl)cc2)cn(C)c1=O` (centres unmarked) [Example 64, 4-(4-chlorophenyl)-5-(1,5-dimethyl-6-oxo-1,6-dihydropyridin-3-yl)-2-isopropyl-3-methyl-4,5-dihydropyrrolo[3,4-c]pyrazol-6(2H)-one], the half-maximal inhibitory concentration (IC50) in experiment [8] worked out at 400 nM; in experiment [2], 130 nM; in experiment [6], 180 nM; in experiment [7], 110 nM. Moreover, the IC (total growth inhibition) was 0.0423 µM in experiment [1], 0.113 µM in experiment [3] and > 10 µM in experiment [4].

Regarding `Cc1nn(C(C)C)c2c1C(c1ccc(F)cc1F)N(c1cc(C)c3nnc(C)n3c1)C2=O` (centres unmarked) [Example 174, 4-(2,4-difluorophenyl)-5-(3,8-dimethyl-[1,2,4]triazolo[4,3-a]pyridin-6-yl)-1-isopropyl-3-methyl-4,5-dihydropyrrolo[3,4-c]pyrazol-6(1H)-one], the IC50 in experiment [8] was 12000 nM; in experiment [2], 52 nM; in experiment [6], 110 nM; in experiment [7] it was 72 nM. In addition, the IC (total growth inhibition) in experiment [1] was 0.0588 µM; in experiment [3] it was 0.105 µM; in experiment [4], > 10 µM.

For `CCn1nc(C)c2c1C(=O)N(c1cc(C)c3nnc(C)n3c1)C2c1ccc(F)cc1F` (centres unmarked) [Example 181, 4-(2,4-difluorophenyl)-5-(3,8-dimethyl-[1,2,4]triazolo[4,3-a]pyridin-6-yl)-1-ethyl-3-methyl-4,5-dihydropyrrolo[3,4-c]pyrazol-6(1H)-one], the IC50 in experiment [8] was > 37000 nM; in experiment [2], 34 nM; in experiment [6], 62 nM; in experiment [7], 40 nM. The IC (total growth inhibition) in experiment [1] was 0.0886 µM; in experiment [3], 0.117 µM; in experiment [4], > 10 µM.
